In patent US5747660A, “Nucleic acid encoding prostaglandin F2α receptor regulatory protein” (priority 1995, dated 1998):

Assays:
[1] = test system: prostaglandin F2α receptor (FP); experiment: [3H]PGF2α specific binding to COS cells cotransfected with FP cDNA and a test cDNA construct; format: cell-based, rat, mouse; details: COS cells cotransfected with FP + the named DNA; FP alone = 100
[2] = test system: prostaglandin F2α receptor (FP); experiment: Cotransfection of a third construct along with FP and FPRP, [3H]PGF2α binding; format: cell-based; details: FP + FPRP + the named third construct; FP + pSG5 = 100
Excerpt: Therefore, a strategy based on cotransfection of a third construct (along with FP and FPRP) was pursued. These third party constructs included ones coding for the protease inhibitors alpha-l trypsin inhibitor and crmA, an inhibitor of cell death, bcl2, and few nonspecific control molecules including the vitamin D receptor, a secreted immunoglobulin molecule, and the empty parent vector pSG5 only. All groups and treatments were compared with control treatment of FP+pSG5 vs. FP+FPRP.

[3] = test system: prostaglandin F2α receptor (FP); experiment: Effect of intracellular messenger altering agents on [3H]PGF2α binding and on FPRP inhibition of it; format: cell-based; details: for % Control [^3 H]PGF2α Binding, FP + FPRP: FP + FPRP transfected cells treated with the agent; for % Control [^3 H]PGF2α Binding, FP + pSG5: FP + pSG5 transfected cells treated with the agent; for % Inhibition (FPRP inhibition of [^3 H]PGF2α binding): in presence of the agent at the concentration/time given; for effect of agent on FPRP inhibition of [^3 H]PGF2α binding (words): FP + FPRP transfected cells pretreated with the agent; for effect of agent on basal [^3 H]PGF2α binding: FP transfected cells pretreated with the agent
Procedure: In a third experiment, transfected cells were treated for 30 min with exposure to the following: phorbol 12-myristate 13-acetate 10^-8 M, prostaglandin E1, 10^-7 M, A23187 10^-6 M, okadaic acid 10^-6 M, or 8-Br-cAMP 10^-5 M (Table 4).
The effect of brefeldin A (3 μg/ml, 2 hr), chloroquine (100 μM, 6 hr) and tunicamysin (2.5 μg/ml, 20 hr) was determined.

[4] = molecular target: prostaglandin F2α receptor (FP), cDNA construct whose species the place does not tell
[5] = molecular target: rat prostaglandin F2α receptor regulatory protein (FPRP) (rat)

Molecule | % Control [^3 H]PGF2α Binding, FP + FPRP [3] | % Control [^3 H]PGF2α Binding, FP + pSG5 [3] | % Inhibition (FPRP inhibition of [^3 H]PGF2α binding) [3] | % control ^3 H!PGF2α specific binding, co-transfection [4] | further results
1 Trypsin Inhibitor: protease inhibitor alpha-l trypsin inhibitor, cotransfected construct | – | – | – | – | % CONTROL, [^3 H]PGF2α specific binding [1]: 141 ± 3%; % Control [^3 H]PGF2α Binding [2]: 38 ± 3%
Nc1ncnc2c1nc(Br)n2[C@@H]1O[C@@H]2COP(=O)(O)O[C@H]2[C@H]1O [8-Br-cAMP] | 52 ± 3% | 94 ± 6% | 45% | – | –
C[C@H]1CCC/C=C/[C@@H]2C[C@H](O)C[C@H]2[C@H](O)/C=C/C(=O)O1 [Brefeldin A, brefeldin A] | 27 ± 3% | 91 ± 3% | 70% | – | effect of agent on FPRP inhibition of [^3 H]PGF2α binding (words) [3]: no effect; effect of agent on FPRP inhibition of [^3 H]PGF2α binding (words) ([3]; listed as brefeldin A): little or no effect; effect of agent on basal [^3 H]PGF2α binding [3]: little or no effect
CNc1ccc2oc(C[C@H]3O[C@@]4(CC[C@H]3C)O[C@H]([C@H](C)C(=O)c3ccc[nH]3)[C@H](C)C[C@H]4C)nc2c1C(=O)O [Calcium ionophore A23187] | 51 ± 6% | 102 ± 6% | 50% | – | –
CCN(CC)CCCC(C)Nc1ccnc2cc(Cl)ccc12 (stereo not drawn) [Chloroquine, chloroquine] | 37 ± 3% | 91 ± 3% | 59% | – | effect of agent on FPRP inhibition of [^3 H]PGF2α binding (words) [3]: little or no effect; effect of agent on basal [^3 H]PGF2α binding [3]: little or no effect
C=C1[C@@H](O)[C@@H]2O[C@]3(CC[C@H](/C=C/[C@@H](C)[C@@H]4CC(C)=C[C@@]5(O[C@H](C[C@@](C)(O)C(=O)O)CC[C@H]5O)O4)O3)CC[C@H]2O[C@@H]1[C@@H](O)C[C@H](C)[C@H]1O[C@@]2(CCCCO2)CC[C@H]1C [Okadaic acid, okadaic acid] | 45 ± 3% | 94 ± 3% | 52% | – | –
CCCCC[C@H](O)/C=C/[C@H]1[C@H](O)CC(=O)[C@@H]1CCCCCCC(=O)O [PGE1, prostaglandin E1] | 51 ± 3% | 100 ± 3% | 49% | – | –
CCCCCCCCCCCCCC(=O)OC1C(C)C2(O)C(C=C(CO)CC3(O)C(=O)C(C)=CC32)C2C(C)(C)C12OC(C)=O (stereo not drawn) [Phorbol 12-myristate 13-acetate, phorbol 12-myristate 13-acetate] | 54 ± 3% | 105 ± 7% | 50% | – | –
Progesterone Receptor | – | – | – | 103 % control | –
Prolactin Receptor | – | – | – | 130 % control | –
TGN38 | – | – | – | 135 % control | –
Vitamin D receptor | – | – | – | 131 % control | % control ^3 H!PGF2α binding, third construct co-transfected with FP and FPRP [5]: 36 % control
Vitamin D receptor: over-expressed control protein, cotransfected construct | – | – | – | – | % CONTROL, [^3 H]PGF2α specific binding [1]: 131 ± 7%; % Control [^3 H]PGF2α Binding [2]: 36 ± 3%
alpha-1 trypsin inhibitor | – | – | – | 141 % control | % control ^3 H!PGF2α binding, third construct co-transfected with FP and FPRP [5]: 38 % control
bcl-2 | – | – | – | 84 % control | % control ^3 H!PGF2α binding, third construct co-transfected with FP and FPRP [5]: 30 % control
bcl-2: an inhibitor of cell death, cotransfected construct | – | – | – | – | % CONTROL, [^3 H]PGF2α specific binding [1]: 84 ± 5%; % Control [^3 H]PGF2α Binding [2]: 30 ± 3%
crmA | – | – | – | 141 % control | % control ^3 H!PGF2α binding, third construct co-transfected with FP and FPRP [5]: 29 % control
tunicamycin | 23 ± 3% | 46 ± 3% | 50% | – | effect of agent on FPRP inhibition of [^3 H]PGF2α binding (words) [3]: approximately the same extent; effect of agent on basal [^3 H]PGF2α binding [3]: decreased
βPDGF Receptor | – | – | – | 90 % control | –
Progesterone Receptor: over-expressed control protein, cotransfected construct (protein, UniProt P06401 1-933, looked up) Progesterone receptor: MTELKAKGPRAPHVAGGPPSPEVGSPLLCRPAAGPFPGSQTSDTLPEVSAIPISLDGLLFPRPCQGQDPSDEKTQDQQSLSDVEGAYSRAEATRGAGGSSSSPPEKDSGLLDSVLDTLLAPSGPGQSQPSPPACEVTSSWCLFGPELPEDPPAAPATQRVLSPLMSRSGCKVGDSSGTAAAHKVLPRGLSPARQLLLPASESPHWSGAPVKPSPQAAAVEVEEEDGSESEESAGPLLKGKPRALGGAAAGGGAAAVPPGAAAGGVALVPKEDSRFSAPRVALVEQDAPMAPGRSPLATTVMDFIHVPILPLNHALLAARTRQLLEDESYDGGAGAASAFAPPRSSPCASSTPVAVGDFPDCAYPPDAEPKDDAYPLYSDFQPPALKIKEEEEGAEASARSPRSYLVAGANPAAFPDFPLGPPPPLPPRATPSRPGEAAVTAAPASASVSSASSSGSTLECILYKAEGAPPQQGPFAPPPCKAPGASGCLLPRDGLPSTSASAAAAGAAPALYPALGLNGLPQLGYQAAVLKEGLPQVYPPYLNYLRPDSEASQSPQYSFESLPQKICLICGDEASGCHYGVLTCGSCKVFFKRAMEGQHNYLCAGRNDCIVDKIRRKNCPACRLRKCCQAGMVLGGRKFKKFNKVRVVRALDAVALPQPVGVPNESQALSQRFTFSPGQDIQLIPPLINLLMSIEPDVIYAGHDNTKPDTSSSLLTSLNQLGERQLLSVVKWSKSLPGFRNLHIDDQITLIQYSWMSLMVFGLGWRSYKHVSGQMLYFAPDLILNEQRMKESSFYSLCLTMWQIPQEFVKLQVSQEEFLCMKVLLLLNTIPLEGLRSQTQFEEMRSSYIRELIKAIGLRQKGVVSSSQRFYQLTKLLDNLHDLVKQLHLYCLNTFIQSRALSVEFPEMMSEVIAAQLPKILAGMVKPLLFHKK | – | – | – | – | % CONTROL, [^3 H]PGF2α specific binding [1]: 103 ± 5%
Prolactin Receptor: over-expressed control protein, cotransfected construct (protein, UniProt P16471 25-622, looked up, over-expressed construct) Prolactin receptor: QLPPGKPEIFKCRSPNKETFTCWWRPGTDGGLPTNYSLTYHREGETLMHECPDYITGGPNSCHFGKQYTSMWRTYIMMVNATNQMGSSFSDELYVDVTYIVQPDPPLELAVEVKQPEDRKPYLWIKWSPPTLIDLKTGWFTLLYEIRLKPEKAAEWEIHFAGQQTEFKILSLHPGQKYLVQVRCKPDHGYWSAWSPATFIQIPSDFTMNDTTVWISVAVLSAVICLIIVWAVALKGYSMVTCIFPPVPGPKIKGFDAHLLEKGKSEELLSALGCQDFPPTSDYEDLLVEYLEVDDSEDQHLMSVHSKEHPSQGMKPTYLDPDTDSGRGSCDSPSLLSEKCEEPQANPSTFYDPEVIEKPENPETTHTWDPQCISMEGKIPYFHAGGSKCSTWPLPQPSQHNPRSSYHNITDVCELAVGPAGAPATLLNEAGKDALKSSQTIKSREEGKATQQREVESFHSETDQDTPWLLPQEKTPFGSAKPLDYVEIHKVNKDGALSLLPKQRENSGKPKKPGTPENNKEYAKVSGVMDNNILVLVPDPHAKNVACFEESAKEAPPSLEQNQAEKALANFTATSSKCRLQLGGLDYLDPACFTHSFH | – | – | – | – | % CONTROL, [^3 H]PGF2α specific binding [1]: 130 ± 7%
